{"source": "patent US10383926B2", "about": "“Biological markers useful in cancer immunotherapy” (GEMVAX & KAEL CO., LTD., priority 2013, dated 2019)", "key": {"[1]": {"system": "locally advanced and metastatic pancreatic cancer", "test": "Survival analysis, TeloVac Phase III trial", "assay_type": "in vivo, human", "conditions": "1062 patients, 52 centres", "experimental": "The TeloVac trial recruited 1062 patients in 52 centres throughout the UK. […] Importantly, biomarkers for an increased survival in response to the vaccine were identified in a subgroup of patients.\n(§1) The TeloVac trial, was initiated in January 2007 comparing combination therapy with Gemcitabine and Capecitabine (GemCap) therapy with concurrent and sequential chemo-immunotherapy using GV1001 in locally advanced and metastatic pancreatic cancer.\n(§2) After this, GV1001 was administered once monthly. GM-CSF was administered separately as an intradermal injection 10-15 minutes before all GV1001 injections at the approximately same site."}, "26 cytokines in serum": {"system": "26 cytokines in serum", "test": "Luminex multiplex inflammatory cytokine analysis of patient serum (TeloVac trial)", "assay_type": "in vivo, human", "experimental": "as §1, §2\nCytokine Results: The Kruskal-Wallis comparison of Arm 2 and Arm 3 baseline (i.e. before treatment) with arm 2 week 7 (GemCap) with Arm 3 week 10 (GemCap and GV1001) serum samples are shown in table 1 below.\nPaired analysis was carried out for: • Arm 2 patients at baseline and following 7 weeks of GemCap treatment. • Arm 3 patients at baseline and following 10 weeks of GemCap and GV1001 treatment."}, "HLA class II molecules": {"system": "HLA class II molecules", "conditions": "cited from earlier work"}, "[2]": {"system": "advanced pancreatic and pulmonary cancer patients", "conditions": "cited from earlier work"}}}
{"sequence": "EARPALLTSRLRFIPK (listed as Homo sapiens) [GV1001, 16-mer peptide, fragment of the human telomerase enzyme]", "values": [{"measurement": "overall survival versus control group receiving chemotherapy", "setting": "[1]", "value": "no significant difference in overall survival"}, {"measurement": "anti-inflammatory response", "setting": "26 cytokines in serum; TeloVac translational research", "value": "significant anti-inflammatory response"}, {"measurement": "regulation of serum levels of eotaxin or MIP1α", "setting": "26 cytokines in serum; human, in vivo", "value": "did not appear that treatment with GV1001 could regulate"}, {"measurement": "change of serum cytokine levels, pre-treatment compared to post treatment", "setting": "26 cytokines in serum; serum, paired analysis", "value": "this decrease was not evident"}, {"measurement": "HLA binding", "setting": "HLA class II molecules", "value": "binds multiple HLA class II molecules"}, {"measurement": "GV1001-specific T-cell responses, subjects", "setting": "[2]", "value": "> 50", "unit": "%"}, {"measurement": "toxicity", "setting": "[2]", "value": "without clinically important toxicity"}]}
